Results: patent publication US11166907B2, “Non-covalently assembled conductive hydrogel” (DENOVOMATRIX GMBH, priority 2017, dated 2021)

Legend:
[1] = Drug encapsulation and release from conductive hydrogels; format: physicochemical
Experimental: Because the networks of PEG-peptide/PEDOT:PSS hydrogel and the PEG-peptide/rGO:PEDOT:PSS hydrogels are amphipathic, they can bind to both hydrophobic and charged hydrophilic compounds. The encapsulation of hydrophilic and hydrophobic drug compounds was tested. PEDOT:PSS was premixed with either hydrophilic compound doxorubicin or hydrophobic compound paclitaxel, followed by adding 5 kD-PEG-KA7. […] Doxorubicin can be encapsulated with a concentration of 0.8 mg/mL, while 0.1 mg/mL paclitaxel can be encapsulated into the hydrogel. Paclitaxel in excess formed precipitate at the bottom. rGO:PEDOT:PSS was premixed with either doxorubicin or paclitaxel, followed by adding starPEG-KA7. […] Doxorubicin can be encapsulated with a concentration as high as 0.8 mg/mL, while 1.0 mg/mL paclitaxel can be encapsulated into the hydrogel. The hydrogels loaded with drugs were then incubated in PBS, and the release of drugs was monitored.

[2] = tested on: HeLa cells; experiment: Cytotoxic effect of drug released from drug-encapsulating hydrogels; format: cell-based; conditions: drug released from rGO:PEDOT:PSS/starPEG-KA7 hydrogels, diluted 10× or 100×
Experimental: The released compounds were diluted 10× or 100× times for the treatment.

[3] = Electrochemical properties (cyclic voltammetry, impendency); format: physicochemical
Text: The cyclic voltammetry (CV) curve of 5 kD-PEG-KA7/PEDOT:PSS is typical of PEDOT:PSS-based materials, showing the oxidation peak between +500 mV and +650 mV and reduction occurring between −100 mV and −50 mV (FIG. 3A). The structure-function relationship between chemical composition of the modular system and electrochemical properties was investigated

[4] = Hydrogel formation by mixing PEG-peptide conjugate with anionic polymer; format: physicochemical; conditions: (BX)n oligopeptide coupled to PEG-5 k (FIG. 1B)
Experimental: 14-kD-heparin ([…], 2.5 mM) and star-PEG-peptide conjugates (6.25 mM, 3.125 mM) were dissolved in physiologic phosphate buffer solution (1×PBS) water or cell culture medium with 2% fetal bovine serum (FBS). These solutions were dissolved in a ratio of 1:4 heparin:star-PEG-peptide-conjugate by obtaining 0.5 mM or 5 mM 14-kD-heparin and 2.5 mM or 5 mM star-PEG-peptide. The ligand/mol ratio was 2:1, 1:1 and 1:5 relative to the mol ratio of 14-kD-heparin and the star-PEG-peptide-conjugate. The mixtures were incubated within a time frame of one hour to overnight at room temperature […]. The gelling time spanned from present up to several hours depending on the applied peptide motif. A hydrogel was formed when it survived the addition of physiological phosphate buffer solution (1×PBS) pH 7.4 to the mixture after the incubation of the mixture over the prior night without mixing with the added solution.
L1-(BX)n peptides comprising a (BX)n peptide selected from KA7, KA5, KA3, KS7, KG7, RA7, and RG7, where X is alanine, glycine or serine (FIG. 1B), were synthesized. The thiol group of cysteine was used to link the peptides to maleimide-functionalized PEG by Michael-type addition reaction, while the tryptophan was used to facilitate the monitoring during HPLC purification and quantification (supporting information). It was first tested whether sulfated oligosaccharide could be replaced by PEDOT:PSS to form a stable hydrogel. starPEG-KA7 in PBS was mixed with PEDOT:PSS aqueous solution to final concentrations of 2.5 mM and 1%, respectively. […] Without conjugation to the oligopeptide, neither maleimide-functionalized nor amino-functionalized PEG formed a hydrogel with PEDOT:PSS.
Moreover, it is much easier to separate a linear PEG chain with two peptides from that with only one peptide, as compared to purify the starPEG with 4 peptides from a mixture of lower degree of modification. Therefore, in the following study, the hydrogel formation using linear PEG-peptides was investigated. […] To incorporate a cell adhesive motiv into the modular network, the RGDSP (SEQ ID NO: 25) sequence was added as part of the linker to the KA7 oligopeptide. […] L2 contains the RGDSP (SEQ ID NO: 25) sequence.
To test whether the non-covalent assembling approach can also be applied to other conductive polymers, the hydrogel formation using PEG-peptide or starPEG-peptide with graphene derivatives was investigated. While graphene has very poor water solubility, graphene oxide (GO) was used. […] Apparently, the carboxylic acid presented on graphene is not sufficient to form stable crosslinking with positively charged peptide-polymer.
Reducing GO in the present of PSS also led to water-soluble and conductive material rGO/PSS. Hydrogel formation using rGO:PSS or rGO:PEDOT:PSS (FIG. 5A) was tested. […]

[5] = 5 kD-PEG-KA7/PEDOT:PSS hydrogel
[6] = rGO:PEDOT:PSS/starPEG-KA7 hydrogel
[7] = the hydrogel (description, type not specified)

In the case of `COc1cccc2c1C(=O)c1c(O)c3c(c(O)c1C2=O)C[C@@](O)(C(=O)CO)C[C@@H]3O[C@H]1C[C@H](N)[C@H](O)[C@H](C)O1` [Doxorubicin, doxorubicin], the “concentration that can be encapsulated” value [1, 5] is reported as 800 µg/mL, the “concentration that can be encapsulated” value [1, 6] is reported as 800 µg/mL and the “concentration that can be encapsulated” value [1, 7] is reported as 800 µg/mL. The “effect on HeLa cells” value [2] was “cytotoxic effect”.
In the case of `CC(=O)O[C@H]1C(=O)[C@@]2(C)[C@H]([C@H](OC(=O)c3ccccc3)[C@]3(O)C[C@H](OC(=O)[C@H](O)[C@@H](NC(=O)c4ccccc4)c4ccccc4)C(C)=C1C3(C)C)[C@]1(OC(C)=O)CO[C@@H]1C[C@@H]2O` [paclitaxel], the “concentration that can be encapsulated” value [1, 5] is reported as 100 µg/mL, the “concentration that can be encapsulated” value [1, 6] is reported as 1000 µg/mL and the “concentration that can be encapsulated” value [1, 7] is reported as 1000 µg/mL. For the same compound, the “effect on HeLa cells” value [2] was “cytotoxic effect”.
In the case of CWGGRGDSP [L2, 14], the “change of impendency / conductivity compared to 5 kD-PEG-KA7/PEDOT:PSS” value ([3]; alanine replaced by serine, or RGDSP added within linker) is reported as “minor effect on the conductivity”.
With KAKAKAKAKA [KA5] the “hydrogel formation with PEDOT:PSS” value [4] was “formed homogeneous hydrogels”.
With KAKAKAKAKAKAKA [KA7] the “hydrogel formation with PEDOT:PSS” value [4] was “formed homogeneous hydrogels”.
In the case of KSKSKSKSKSKSKS [KS7], the “hydrogel formation with PEDOT:PSS” value [4] is reported as “formed homogeneous hydrogels”.
For RARARARARARARA [RA7], the “hydrogel formation with PEDOT:PSS” value [4] was “formed homogeneous hydrogels”.
In the case of heparin, the “effect on conductivity of hydrogel” value ([3]; 1 mM heparin in hydrogel of 1% PEDOT:PSS and 2.5 mM starPEG-KA7, versus 1% PEDOT:PSS and 2.5 mM 5 kD-PEG-KA7) is reported as “enhanced the conductivity”.
